Key:
phosphorylated PLCγ2 = assay: Phosphorylated PLCγ2 in circulating CD8+ T cells of patients, Phase 1 trial (flow cytometry); format: in vivo, human
Description: [The procedure below names another target; the source lists this target under the same test.] Pharmacodynamic analysis of the proximal biomarker, phosphorylated HS1 is assessed in circulating CD8^+ T cells from patients that are being administered doses ranging from 5 to 50 mg of Compound 23 once daily and is being used to assess target engagement of Compound 23 as part of the dose/exposure-response profile. Whole blood is collected longitudinally and added into two types of TruCulture (Myriad) tubes. One tube contains media, and the second tube contains anti-CD3 and anti-CD28, which are subsequently crosslinked to induce cellular stimulation for pharmacodynamic analysis. Phosphorylated HS1 is assessed by flow cytometry pre and post dose on Cycle 1 Day 1 (C1D1) and Cycle 2 Day 1 (C2D1) to characterize single/multiple dose PD profiles.
% Maximal phosphorylated signal and % AUC are two commonly used parameters to assess the pharmacodynamic effects of drugs.
% Maximal phosphorylated signal refers to the maximum amount of a specific protein that becomes phosphorylated (i.e., modified by the addition of a phosphate group) in response to a drug or other stimulus. This parameter is often used to measure the activation of signaling pathways that are important for various cellular processes, including cell growth and differentiation, immune response, and metabolism.
% AUC, on the other hand, refers to the area under the curve (AUC) over time, expressed as a percentage of the maximum possible AUC. In summary, both % maximal phosphorylated signal and % AUC are useful parameters to assess the pharmacodynamic effects of drugs. % maximal phosphorylated signal is a measure of the activation of signaling pathways, while % AUC reflects the duration of the effect on PD signals. Both parameters can be used to evaluate the potency and duration of a drug's pharmacodynamic effects.

pY180/pY511-ITK = assay: Phosphoprotein screen in human whole blood with CBL inhibitor at 10 uM: ITK; format: cell-based; conditions: 1 hr 37° C., human whole blood 8 donors, anti-CD3/CD28 + crosslinker 60 minutes
Description: (§1) To identify proximal biomarkers of CBL-B inhibition in immune cells, a panel of phosphorylated proteins were screened in human whole blood incubated with CBL-B inhibitor and concomitant anti-CD3 and anti-CD28 antibodies. The effect of CBL-B inhibition was assessed across multiple cellular signaling networks.
(§2) Human heparinized whole blood from 8 donors was received after an overnight shipment at 4° C. The blood was plated, treated with CBL inhibitor at 10 uM and incubated at 37° C. for 60 minutes. After incubation, the cells were stimulated with anti-CD3/CD28 followed by a cross-linking antibody (30 μg of goat anti-mouse IgG (H+L) antibody (Invitrogen)). After 60 minutes, the cells were fixed, and stained using surface markers for T cells (CD3^+CD4^+& CD3^+CD8^+) and analyzed by flow cytometry for target phosphorylation of the following markers: pY180/pY511-ITK, pY397-HS1, pY759-PLCg2, pY783-PLCg1, pY525/pY526/pY348-SYK & pY319-Zap70.
(§3) Fold change of each biomarker was calculated with the following example equation: […]
(§4) Whole blood from eight human donors was collected in sodium heparin anti-coagulant treated with 10 μM of Compound 23 for 1 hr at 37° C. […] Fold change of % phosphorylation normalized to DMSO was quantitated in T cells (CD8^+) using flow cytometry is provided in FIGS. 6A-6B.

pY759-PLCg2 = assay: Phosphoprotein screen in human whole blood with CBL inhibitor at 10 uM: PLCγ2; format: cell-based; conditions: 1 hr 37° C., human whole blood 8 donors, anti-CD3/CD28 + crosslinker 60 minutes
Description: as §1, §2, §3, §4

[1] = 5 mg once daily, n=1, cycle 1, day 1
[2] = 15 mg once daily, n=12, cycle 1, day 1
[3] = 25 mg once daily, n=7, cycle 1, day 1
[4] = 50 mg once daily, n=2, cycle 1, day 1

Question: How did the “trend of maximal or AUC % pPLCγ2 with PK” value (phosphorylated PLCγ2) turn out when `C[C@H]1CCCN(Cc2cc3c(c(C(F)(F)F)c2)CN(c2cccc([C@]4(c5nncn5C)C[C@@H](C)C4)c2)C3=O)C1` [Compound 23] was run?
Answer: No apparent trend

Question: What about the “% of phosphorylated PLCγ2 expressing CD8+ T cells (maximal)” value (phosphorylated PLCγ2; [1]) of the same compound?
Answer: 56%

Question: And the “phosphorylated PLCγ2 AUC” value (phosphorylated PLCγ2; [1])?
Answer: 1003

Question: And the “% of phosphorylated PLCγ2 expressing CD8+ T cells (maximal)” value (phosphorylated PLCγ2; [2])?
Answer: 81%

Question: And the “phosphorylated PLCγ2 AUC” value (phosphorylated PLCγ2; [2])?
Answer: 1616

Question: And the “% of phosphorylated PLCγ2 expressing CD8+ T cells (maximal)” value (phosphorylated PLCγ2; [3])?
Answer: 85%

Question: What about the “phosphorylated PLCγ2 AUC” value (phosphorylated PLCγ2; [3]) of the same compound?
Answer: 1807

Question: What about the “% of phosphorylated PLCγ2 expressing CD8+ T cells (maximal)” value (phosphorylated PLCγ2; [4]) of the same compound?
Answer: 75%

Question: And the “phosphorylated PLCγ2 AUC” value (phosphorylated PLCγ2; [4])?
Answer: 1706

Question: What about the “increased phosphorylation of ITK compared to DMSO control” value (pY180/pY511-ITK) of the same compound?
Answer: 3-4 fold

Question: And the “increased phosphorylation of PLCγ2 compared to DMSO control” value (pY759-PLCg2)?
Answer: 3-4 fold
